# Experimental data as given in patent publication US11401278B2, “Macrocyclic indole derivatives” (The Broad Institute, Inc., priority 2017, dated 2022).
# Several values for one entry are separate records, joined by “and”; a condition that tells them apart may be missing. Equal entries are not always repeated. Structures can show the parent of a compound that is named as a salt. Where two headings read alike, the source gives them in different places.
# Columns and labels:
# SUDHL5 [1] = assay: Antiproliferation assay (Assay 7), SUDHL5; assay type: cell-based; settings: CellTiter-Glo, median, read-out: Antiproli SUDHL5 [M] (median) IC50
# Summary of the method: (§1)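 Cells were treated with compound for 72 hours at 37° C in a humidified incubator, and viability was then read by CellTiter-Glo luminescence. A parallel reference plate was read at time zero (day 0) in the same way for baseline determination.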
# SUDHL5 [2] = assay: Induction of caspase-3/7 activity (Assay 4), SUDHL5; assay type: cell-based; settings: caspase-3/7 induction, median
# Summary of the method: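 Caspase-3/7 activity measured by Caspase-Glo 3/7 luminescence in DLBCL cells after 3 h compound treatment at 37 °C. Medium-only background subtracted. EC50 fitted with C0 fixed at 1 and top set to the reference compound's plateau/max induction.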
# BCL-2 = BCL-2 (Homo sapiens (Human), UniProt P10415); assay: Protein-protein interaction assay BCL-2/Bad BH3 peptide (BCL-2 assay, TR-FRET); assay type: binding; settings: His-BCL-2 / Bad BH3 peptide, median
# Description: Assay 3 Protein-Protein Interaction Assay: BCL-2/Bad BH3 Peptide (BCL-2 Assay)
# The dose-dependent inhibition by the compounds described in this invention of the interaction between BCL-2 and the BH3 domain of Bad (both human) was determined using a steady state binding competition assay with time-resolved fluorescence energy transfer (TR-FRET) readout. For that purpose BCL-2 (amino acids 1-211, C-terminal fused to a hexahistidine (6×His) tag (SEQ ID 5) and a synthetic Bad BH3-derived peptide of sequence Biotin-PEG2-PEG2-NLWAAQRYGRELRR-Nle-SDEFVDSFKK-amide (SEQ ID 4) served as protein receptor and tracer ligand respectively. The recombinant BCL-2 protein (expressed in E. coli) was purchased from BPS Bioscience (San Diego, Calif., USA). The Bad BH3-derived peptide can be obtained from e.g. Biosyntan (Berlin, Germany).
# In the assay 11 different concentrations of each compound (0.1 nM, 0.33 nM, 1.1 nM, 3.8 nM, 13 nM, 44 nM, 0.15 μM, 0.51 μM, 1.7 μM, 5.9 μM and 20 μM) were typically measured as duplicates in the same microtiter plate. For that, 100-fold concentrated DMSO solutions were prepared by serial dilutions (1:3.4) of a 2 mM stock solution in a clear, 384-well microtiter plate (Greiner Bio-One, Frickenhausen, Germany). From there, 50 nl were transferred in a dark test plate (Greiner Bio-One, Frickenhausen, Germany). The assay was initiated by addition of 2 μl of a 2.5-fold concentrated His-BCL-2 solution (usually for a 1 nM end concentration in 5 μl reaction volume) in aqueous assay buffer [50 mM Tris/HCl pH 7, 100 mM sodium chloride (NaCl), 50 mM potassium fluoride (KF), 0.005% Tween-20, 2 mM DTT, 0.1% bovine gamma globulin (BGG)] to the compounds in the assay plate. This was followed by a 10-minute incubation step at 22° C. for pre-equilibration of the putative complex between His-BCL-2 and the compounds. After that, 3 μl of a 1.67-fold concentrated solution (in assay buffer) consisting of Bad BH3-derived peptide (1 nM end concentration) and TR-FRET detection reagents [1.67 nM anti-His-Eu cryptate and 1.67 nM streptavidin-XL665 (both from Cisbio Bioassays, Codolet, France)], were added.
# The mixture was incubated in the dark for one hour at 22° C. and then overnight at 4° C. The formation of BCL-2/Bad complexes was determined by measuring the resonance energy transfer of the anti-His-Eu-cryptate antibody to the streptavidin-XL665 present in the reaction. For that purpose, the fluorescence emission at 620 nm and 665 nm after excitation at 330-350 nm was measured in a TR-FRET measuring instrument, for instance a Rubystar or a Pherastar (both from BMG Lab Technologies, Offenburg, Germany) or a Viewlux (Perkin-Elmer). The ratio of the emission at 665 nm and at 622 nm was used as indicator of the amount of BCL-2/Bad complexes present.
# The resulting data (ratio) were normalized, taking 0% inhibition as the mean value of control measurements (usually 32 data points) where all reagents were included. In this case 50 nl DMSO were used instead of compounds. A 100% inhibition corresponded to the mean value of control measurements (usually 32 data points) where all reagents except BCL-2 were included. IC50 values were determined by regression analysis based on a 4 parameter equation (minimum, maximum, IC50, Hill; Y=Max+(Min−Max)/(1+(X/IC50)^HiII) using the Screener Software (Genedata).
# AMO-1 = assay: Antiproliferation assay (Assay 7), AMO-1; assay type: cell-based; settings: CellTiter-Glo, 72 hours, several values per example
# Summary of the method: as §1
# [3] = read-out: Antiproli AMO-1 [M] IC50
# Sequence of BCL-2 (P10415 other isoform, or with tags, fused parts or gaps): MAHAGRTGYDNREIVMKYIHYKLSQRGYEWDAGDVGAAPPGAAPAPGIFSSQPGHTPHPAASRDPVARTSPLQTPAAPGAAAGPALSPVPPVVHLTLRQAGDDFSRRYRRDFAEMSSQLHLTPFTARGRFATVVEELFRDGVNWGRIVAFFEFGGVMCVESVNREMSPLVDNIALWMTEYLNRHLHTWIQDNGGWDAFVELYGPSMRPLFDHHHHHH
Compound,"IC50 (SUDHL5 [1]; Homo sapiens, SU-DHL-5, 72 h) [M]","EC50 (SUDHL5 [2]; Homo sapiens, SU-DHL-5, 3 h) [nM]",IC50 (BCL-2) [nM],IC50 (SUDHL5 [1]; 72 hours) [M],EC50 (SUDHL5 [2]; 3 hours) [nM],IC50 (AMO-1; [3]),"IC50 (AMO-1; listed as 05, read-out: Antiproli AMO-1 [M] IC50) [M]"
"CCc1c2c(nn1C)CN(C)S(=O)(=O)CCCn1c(C(=O)O)c(CCCOc3cccc4c3CCCC4)c3ccc(F)c-2c31 (racemic) [Example 34, (rac)-12-Ethyl-13-fluoro-8,11-dimethyl-1-(3-((5,6,7,8-tetrahydronaphthalen-1-yl)oxy)propyl)-5,6,9,11-tetrahydro-4H,8H-pyrazolo[3′,4′:4,5][1]thia[2,8]diazacycloundecino[6,7,8-hi]indole-2-carboxylic acid 7,7-dioxide]",8.2e-07,1300,> 20000,–,–,–,–
"CCc1c2c(nn1C)CN(CCN1CCOCC1)S(=O)(=O)CCCn1c(C(=O)O)c(CCCOc3cccc4cc(F)ccc34)c3ccc(Cl)c-2c31 [Example 77, (rac)-13-chloro-12-ethyl-1-(3-((6-fluoronaphthalen-1-yl)oxy)propyl)-11-methyl-8-(2-morpholinoethyl)-5,6,9,11-tetrahydro-4H,8H-pyrazolo[3′,4′:4,5][1]thia[2,8]diazacycloundecino[6,7,8-hi]indole-2-carboxylic acid 7,7-dioxide]",7.2e-06,4800,> 20000,–,–,–,–
"Cc1c2c(nn1C)CN(CCN1CCOCC1)S(=O)(=O)CCCn1c(C(=O)O)c(CCCOc3cccc4ccccc34)c3cccc-2c31 (single isomer, unassigned; enantiomer 2) [Example 3, 2,3-Dimethyl-14-[2-(morpholin-4-yl)ethyl]-7-{3-[(naphthalen-1-yl)oxy]propyl}-13,13-dioxo-10,11,12,13,14,15-hexahydro-2H-13λ^6-pyrazolo[3′,4′:4,5][1,2,8]thiadiazacycloundecino-[6,7,8-hi]indole-8-carboxylic acid-N-ethylethanamine salt (Enantiomer 2)]",–,–,> 20000,1.5e-05,> 33000,–,–
"COc1ccc(CN2Cc3nn(C)c(C)c3-c3c(Cl)ccc4c(CCCOc5cccc6cc(F)ccc56)c(C(=O)O)n(c34)CCCS2(=O)=O)c(OC)c1 (racemic) [Example 49, (rac)-4-chloro-14-(2,4-dimethoxybenzyl)-7-{3-[(6-fluoro-1-naphthyl)oxy]propyl}-2,3-dimethyl-11,12,14,15-tetrahydro-2H,10H-pyrazolo[3′,4′:4,5][1,2,8]thiadiazacycloundecino[6,7,8-hi]indole-8-carboxylic acid 13,13-dioxide]",8.5e-07,210,20000,–,–,–,–
"Cc1c2c(nn1C)C(CCN1CCOCC1)N(C)S(=O)(=O)CCCn1c(C(=O)O)c(CCCOc3cccc4ccccc34)c3cccc-2c31 (single isomer, unassigned; enantiomer 2) [Example 46, 2,3,14-trimethyl-15-[2-(morpholin-4-yl)ethyl]-7-{3-[(naphthalen-1-yl)oxy]propyl}-13,13-dioxo-10,11,12,13,14,15-hexahydro-2H-13lambda^6-pyrazolo[3′,4′:4,5][1,2,8]thiadiazacycloundecino[6,7,8-hi]indole-8-carboxylic acid N-ethylethanamine Salt (Enantiomer 2)]",–,–,–,3e-07,390,5.3e-07 M and 5e-07 M,–
"Cc1c2c(nn1C)CNS(=O)(=O)CCCn1c(C(=O)O)c(CCCOc3cccc4cc(F)ccc34)c3ccc(Cl)c-2c31 (single isomer, unassigned; enantiomer 1) [Example 51, 4-chloro-7-{3-[(6-fluoronaphthalen-1-yl)oxy]propyl}-2,3-dimethyl-13,13-dioxo-10,11,12,13,14,15-hexahydro-2H-13lambda^6-pyrazolo[3′,4′:4,5][1,2,8]thiadiazacycloundecino[6,7,8-hi]indole-8-carboxylic acid (Enantiomer 1)]",–,–,> 20000,4.1e-07,340,–,–
"Cc1c2c(nn1C)CN(CCN1CCOCC1)S(=O)(=O)CCCn1c(C(=O)O)c(CCCOc3cccc4ccccc34)c3cccc-2c31 (racemic) [Example 1, (rac)-2,3-Dimethyl-14-[2-(morpholin-4-yl)ethyl]-7-{3-[(naphthalen-1-yl)oxy]propyl}-13,13-dioxo-10,11,12,13,14,15-hexahydro-2H-13λ^6-pyrazolo[3′,4′:4,5][1,2,8]thiadiazacycloundecino-[6,7,8-hi]indole-8-carboxylic acid]",7.2e-06,4800,> 20000,–,–,–,–
"CCc1c2c(nn1C)C(CCC1CCOCC1)N(C)S(=O)(=O)CCCn1c(C(=O)O)c(CCCOc3cccc4cc(F)ccc34)c3ccc(Cl)c-2c31 (racemic) [Example 60, (rac)-4-chloro-3-ethyl-7-{3-[(6-fluoro-1-naphthyl)oxy]propyl}-2,14-dimethyl-15-[2-(tetrahydro-2H-pyran-4-yl)ethyl]-11,12,14,15-tetrahydro-2H,10H-pyrazolo[3′,4′:4,5][1,2,8]thiadiazacycloundecino[6,7,8-hi]indole-8-carboxylic acid 13,13-dioxide (Racemate 1)]",–,–,–,1.8e-08,18,4.4e-08 M,–
"Cc1c2c(nn1C)C(CCN1CCOCC1)N(C)S(=O)(=O)CCCn1c(C(=O)O)c(CCCOc3cccc4cc(F)ccc34)c3ccc(Cl)c-2c31 (racemic) [Example 48, (rac)-4-chloro-7-{3-[(6-fluoro-1-naphthyl)oxy]propyl}-2,3,14-trimethyl-15-(rac)-[2-(morpholin-4-yl)ethyl]-11,12,14,15-tetrahydro-2H,10H-pyrazolo[3′,4′:4,5][1,2,8]thiadiazacycloundecino[6,7,8-hi]indole-8-carboxylic acid 13,13-dioxide (Mixture of Stereoisomers)]",3.1e-08,–,> 20000,–,13,–,–
"CCc1c2c(nn1C)C(CCN1CCOCC1)N(C)S(=O)(=O)CCCn1c(C(=O)O)c(CCCOc3cccc4cc(F)ccc34)c3ccc(Cl)c-2c31 (racemic) [Example 73, (rac)-(4-chloro-3-ethyl-7-{3-[(6-fluoronaphthalen-1-yl)oxy]propyl}-2,14-dimethyl-15-[2-(morpholin-4-yl)ethyl]-13,13-dioxo-10,11,12,13,14,15-hexahydro-2H-13lambda^6-pyrazolo[3′,4′:4,5][1,2,8]thiadiazacycloundecino[6,7,8-hi]indole-8-carboxylic acid (Racemate 1)]",–,–,–,1.5e-08,23,2.6e-08 M and 2.5e-08 M,–
"Cc1c2c(nn1C)CN(C)S(=O)(=O)CCCn1c(C(=O)O)c(CCCOc3cccc4ccccc34)c3ccc(Cl)c-2c31 (single isomer, unassigned; enantiomer 1) [Example 5, 4-Chloro-2,3,14-trimethyl-7-{3-[(naphthalen-1-yl)oxy]propyl}-13,13-dioxo-10,11,12,13,14,15-hexahydro-2H-13λ^6-pyrazolo[3′,4′:4,5][1,2,8]thiadiazacycloundecino[6,7,8-hi]indole-8-carboxylic acid-N-ethylethanamine salt (Enantiomer 1)]",–,–,–,5.1e-07,130,–,1.5e-06
